# Results as given in patent publication US20240238242A1, “EGCG buccal tablet and use thereof” (priority 2023, published 2024).
# Legend:
# [1] = test system: Helicobacter pylori (Hp) strain B5-3; assay: In vitro bactericidal concentration (MBC) against Helicobacter pylori, broth dilution and plate counting; conditions: for Bactericidal rate % / Concentration CFU/mL / Average number of colonies: shake flask about 24 hours; for Average number of colonies: dilution factor 10^−4
# [2] = test system: SARS-CoV-2 BJ-01 virus; assay: In vitro effect of EGCG on SARS-CoV-2 BJ-01 infection (co-incubation, then Vero-E6 cells); assay type: cell-based; conditions: 2.18 mM EGCG co-incubated 1, 2, 4 and 8 minutes at room temperature; Vero-E6, 48 hours
# Excerpt: In this experimental example, SARS-CoV-2 BJ-01 virus was provided by the Military Veterinary Research Institute, Academy of Military Medical Sciences, Academy of Military Sciences, and its Accession Number at NCBI was MT291831; Vero-E6 cells were provided by the Military Veterinary Research Institute, Academy of Military Medical Sciences, Academy of Military Sciences; and the culture medium was Dulbecco's Modified Eagle Medium, purchased from Thermo Scientific, catalog number: C11995500BT.
# The incubation of drug EGCG with SARS-CoV-2 BJ-01 virus in the culture medium was designed according to the time gradient, in which the incubation time was: 1 minute, 2 minutes, 4 minutes, 8 minutes, the EGCG concentration in the incubation system was 1 mg/mL (2.18 mM), and the virus titer in the incubation system was 10^7 TCID50. After incubation, the incubation system was diluted 10 times and used to infect Vero-E6 cells. After 48 hours, the Ct value of the cell supernatant was detected.
# [3] = test system: Influenza B virus (B/Lee); assay: Inactivation efficiency against influenza B virus B/Lee strain (residual TCID50 on MDCK cells); assay type: cell-based; conditions: for average inactivation efficiency against virus: B/Lee virus, two experiments
smiles,measurement,setting,value
"O=C(O[C@@H]1Cc2c(O)cc(O)cc2O[C@@H]1c1cc(O)c(O)c(O)c1)c1cc(O)c(O)c(O)c1 [EGCG, Epigallocatechin gallate]",Bactericidal rate %,[1]; EGCG 100 μM,98.8%
same,Concentration CFU/mL,[1]; EGCG 100 μM,1.4 × 10^7 CFU/mL
same,Average number of colonies,[1]; EGCG 100 μM,142
same,Bactericidal rate %,[1]; EGCG 200 μM,>99.9%
same,Concentration CFU/mL,[1]; EGCG 200 μM,3.5 × 10^6 CFU/mL
same,Average number of colonies,[1]; EGCG 200 μM,35
same,Bactericidal rate %,[1]; EGCG 400 μM,>99.9%
same,Concentration CFU/mL,[1]; EGCG 400 μM,2.2 × 10^6 CFU/mL
same,Average number of colonies,[1]; EGCG 400 μM,22
same,MBC,"[1]; Helicobacter pylori, 24 h, read-out: minimum bactericidal concentration (MBC)",200 µM
same,Hp inactivated,"[1]; shake flask culture, lowest concentration of 100 μM",about 98.9%
same,number of live viruses (virus copy number in cell supernatant),[2],significantly reduced
same,CPE test (virus replication in the cell wells),"[3]; 0.2 mM EGCG + B/Lee virus, 1 minute, first experiment, dilution factor 10^1, wells 1-10",+
same,CPE test (virus replication in the cell wells),"[3]; 0.2 mM EGCG + B/Lee virus, 1 minute, first experiment, dilution factor 10^2, wells 1-10",+
same,CPE test (virus replication in the cell wells),"[3]; 0.2 mM EGCG + B/Lee virus, 1 minute, first experiment, dilution factor 10^3, wells 1-10",+
same,CPE test (virus replication in the cell wells),"[3]; 0.2 mM EGCG + B/Lee virus, 1 minute, first experiment, dilution factor 10^4, wells 1-10",+
same,CPE test (virus replication in the cell wells),"[3]; 0.2 mM EGCG + B/Lee virus, 1 minute, first experiment, dilution factor 10^5, wells 1-10",− and +
same,CPE test (virus replication in the cell wells),"[3]; 0.2 mM EGCG + B/Lee virus, 1 minute, first experiment, dilution factor 10^6, wells 1-10",− and +
same,CPE test (virus replication in the cell wells),"[3]; 0.2 mM EGCG + B/Lee virus, 1 minute, first experiment, dilution factor 10^7, wells 1-10",−
same,CPE test (virus replication in the cell wells),"[3]; 0.2 mM EGCG + B/Lee virus, 1 minute, first experiment, dilution factor 10^8, wells 1-10",−
same,CPE test (virus replication in the cell wells),"[3]; 0.2 mM EGCG + B/Lee virus, 1 minute, second experiment, dilution factor 10^1, wells 1-10",+
same,CPE test (virus replication in the cell wells),"[3]; 0.2 mM EGCG + B/Lee virus, 1 minute, second experiment, dilution factor 10^2, wells 1-10",+
same,CPE test (virus replication in the cell wells),"[3]; 0.2 mM EGCG + B/Lee virus, 1 minute, second experiment, dilution factor 10^3, wells 1-10",+
same,CPE test (virus replication in the cell wells),"[3]; 0.2 mM EGCG + B/Lee virus, 1 minute, second experiment, dilution factor 10^4, wells 1-10",+
same,CPE test (virus replication in the cell wells),"[3]; 0.2 mM EGCG + B/Lee virus, 1 minute, second experiment, dilution factor 10^5, wells 1-10",+
same,CPE test (virus replication in the cell wells),"[3]; 0.2 mM EGCG + B/Lee virus, 1 minute, second experiment, dilution factor 10^6, wells 1-10",− and +
same,CPE test (virus replication in the cell wells),"[3]; 0.2 mM EGCG + B/Lee virus, 1 minute, second experiment, dilution factor 10^7, wells 1-10",−
same,CPE test (virus replication in the cell wells),"[3]; 0.2 mM EGCG + B/Lee virus, 1 minute, second experiment, dilution factor 10^8, wells 1-10",−
same,average inactivation efficiency against virus,"[3]; 0.2 mM EGCG, 1 minute",18.45%
same,CPE test (virus replication in the cell wells),"[3]; 1 mM EGCG + B/Lee virus, 1 minute, first experiment, dilution factor 10^3, wells 1-10",+
same,CPE test (virus replication in the cell wells),"[3]; 1 mM EGCG + B/Lee virus, 1 minute, first experiment, dilution factor 10^4, wells 1-10",+
same,CPE test (virus replication in the cell wells),"[3]; 1 mM EGCG + B/Lee virus, 1 minute, first experiment, dilution factor 10^5, wells 1-10",+
same,CPE test (virus replication in the cell wells),"[3]; 1 mM EGCG + B/Lee virus, 1 minute, first experiment, dilution factor 10^6, wells 1-10",−
same,CPE test (virus replication in the cell wells),"[3]; 1 mM EGCG + B/Lee virus, 1 minute, first experiment, dilution factor 10^7, wells 1-10",−
same,CPE test (virus replication in the cell wells),"[3]; 1 mM EGCG + B/Lee virus, 1 minute, first experiment, dilution factor 10^8, wells 1-10",−
same,CPE test (virus replication in the cell wells),"[3]; 1 mM EGCG + B/Lee virus, 1 minute, second experiment, dilution factor 10^3, wells 1-10",+
same,CPE test (virus replication in the cell wells),"[3]; 1 mM EGCG + B/Lee virus, 1 minute, second experiment, dilution factor 10^4, wells 1-10",+
same,CPE test (virus replication in the cell wells),"[3]; 1 mM EGCG + B/Lee virus, 1 minute, second experiment, dilution factor 10^5, wells 1-10",+
same,CPE test (virus replication in the cell wells),"[3]; 1 mM EGCG + B/Lee virus, 1 minute, second experiment, dilution factor 10^6, wells 1-10",− and +
same,CPE test (virus replication in the cell wells),"[3]; 1 mM EGCG + B/Lee virus, 1 minute, second experiment, dilution factor 10^7, wells 1-10",−
same,CPE test (virus replication in the cell wells),"[3]; 1 mM EGCG + B/Lee virus, 1 minute, second experiment, dilution factor 10^8, wells 1-10",−
same,CPE test (virus replication in the cell wells),"[3]; 1 mM EGCG + B/Lee virus, 5 minute, first experiment, dilution factor 10^2, wells 1-10",+
same,CPE test (virus replication in the cell wells),"[3]; 1 mM EGCG + B/Lee virus, 5 minute, first experiment, dilution factor 10^3, wells 1-10",+
same,CPE test (virus replication in the cell wells),"[3]; 1 mM EGCG + B/Lee virus, 5 minute, first experiment, dilution factor 10^4, wells 1-10",+
same,CPE test (virus replication in the cell wells),"[3]; 1 mM EGCG + B/Lee virus, 5 minute, first experiment, dilution factor 10^5, wells 1-10",+
same,CPE test (virus replication in the cell wells),"[3]; 1 mM EGCG + B/Lee virus, 5 minute, first experiment, dilution factor 10^6, wells 1-10",−
same,CPE test (virus replication in the cell wells),"[3]; 1 mM EGCG + B/Lee virus, 5 minute, first experiment, dilution factor 10^7, wells 1-10",−
same,CPE test (virus replication in the cell wells),"[3]; 1 mM EGCG + B/Lee virus, 5 minute, first experiment, dilution factor 10^8, wells 1-10",−
same,CPE test per cell well,"[3]; 1 mM EGCG + B/Lee virus, 5 minute, second experiment, dilution factor 10^1, wells 1-10",+
same,CPE test per cell well,"[3]; 1 mM EGCG + B/Lee virus, 5 minute, second experiment, dilution factor 10^2, wells 1-10",+
same,CPE test per cell well,"[3]; 1 mM EGCG + B/Lee virus, 5 minute, second experiment, dilution factor 10^3, wells 1-10",+
same,CPE test per cell well,"[3]; 1 mM EGCG + B/Lee virus, 5 minute, second experiment, dilution factor 10^4, wells 1-10",+
same,CPE test per cell well,"[3]; 1 mM EGCG + B/Lee virus, 5 minute, second experiment, dilution factor 10^5, wells 1-10",+ and −
same,CPE test per cell well,"[3]; 1 mM EGCG + B/Lee virus, 5 minute, second experiment, dilution factor 10^6, wells 1-10",−
same,CPE test per cell well,"[3]; 1 mM EGCG + B/Lee virus, 5 minute, second experiment, dilution factor 10^7, wells 1-10",−
same,CPE test per cell well,"[3]; 1 mM EGCG + B/Lee virus, 5 minute, second experiment, dilution factor 10^8, wells 1-10",−
same,average inactivation efficiency against virus,"[3]; 1 mM EGCG, 1 minute",28.74%
same,average inactivation efficiency against virus,"[3]; 1 mM EGCG, 5 minutes",18.45%
same,CPE test (virus replication in the cell wells),"[3]; 5 mM EGCG + B/Lee virus, 1 minute, first experiment, dilution factor 10^4, wells 1-10",+
same,CPE test (virus replication in the cell wells),"[3]; 5 mM EGCG + B/Lee virus, 1 minute, first experiment, dilution factor 10^5, wells 1-10",+
same,CPE test (virus replication in the cell wells),"[3]; 5 mM EGCG + B/Lee virus, 1 minute, first experiment, dilution factor 10^6, wells 1-10",−
same,CPE test (virus replication in the cell wells),"[3]; 5 mM EGCG + B/Lee virus, 1 minute, first experiment, dilution factor 10^7, wells 1-10",−
same,CPE test (virus replication in the cell wells),"[3]; 5 mM EGCG + B/Lee virus, 1 minute, first experiment, dilution factor 10^8, wells 1-10",−
same,CPE test (virus replication in the cell wells),"[3]; 5 mM EGCG + B/Lee virus, 1 minute, second experiment, dilution factor 10^4, wells 1-10",+
same,CPE test (virus replication in the cell wells),"[3]; 5 mM EGCG + B/Lee virus, 1 minute, second experiment, dilution factor 10^5, wells 1-10",− and +
same,CPE test (virus replication in the cell wells),"[3]; 5 mM EGCG + B/Lee virus, 1 minute, second experiment, dilution factor 10^6, wells 1-10",−
same,CPE test (virus replication in the cell wells),"[3]; 5 mM EGCG + B/Lee virus, 1 minute, second experiment, dilution factor 10^7, wells 1-10",−
same,CPE test (virus replication in the cell wells),"[3]; 5 mM EGCG + B/Lee virus, 1 minute, second experiment, dilution factor 10^8, wells 1-10",−
same,CPE test (virus replication in the cell wells),"[3]; 5 mM EGCG + B/Lee virus, 5 minute, first experiment, dilution factor 10^4, wells 1-10",+ and −
same,CPE test (virus replication in the cell wells),"[3]; 5 mM EGCG + B/Lee virus, 5 minute, first experiment, dilution factor 10^5, wells 1-10",+ and −
same,CPE test (virus replication in the cell wells),"[3]; 5 mM EGCG + B/Lee virus, 5 minute, first experiment, dilution factor 10^6, wells 1-10",− and +
same,CPE test (virus replication in the cell wells),"[3]; 5 mM EGCG + B/Lee virus, 5 minute, first experiment, dilution factor 10^7, wells 1-10",− and +
same,CPE test (virus replication in the cell wells),"[3]; 5 mM EGCG + B/Lee virus, 5 minute, first experiment, dilution factor 10^8, wells 1-10",−
same,CPE test per cell well,"[3]; 5 mM EGCG + B/Lee virus, 5 minute, second experiment, dilution factor 10^4, wells 1-10",+
same,CPE test per cell well,"[3]; 5 mM EGCG + B/Lee virus, 5 minute, second experiment, dilution factor 10^5, wells 1-10",− and +
same,CPE test per cell well,"[3]; 5 mM EGCG + B/Lee virus, 5 minute, second experiment, dilution factor 10^6, wells 1-10",−
same,CPE test per cell well,"[3]; 5 mM EGCG + B/Lee virus, 5 minute, second experiment, dilution factor 10^7, wells 1-10",−
same,CPE test per cell well,"[3]; 5 mM EGCG + B/Lee virus, 5 minute, second experiment, dilution factor 10^8, wells 1-10",−
same,average inactivation efficiency against virus,"[3]; 5 mM EGCG, 1 minute",52.43%
same,average inactivation efficiency against virus,"[3]; 5 mM EGCG, 5 minutes",36.90%
